The subject of assay [1] is Caki1, A498, Caki2, and ACHN ccRCC cells. The assay is described as follows: Gene array expression analysis. In kind it is cell-based, human. Particulars: 75 nM, 24 hours, vs DMSO control. The method, then: Gene array expression analysis was performed using Affymetrix Human Genome U133 Plus 2.0 Array chip. The details of the data processing and methodology were previously described in (Tun H W, Marlow L A, von Roemeling C A, Cooper S J, Kreinest P, Wu K, et al. Pathway signature and cellular differentiation in clear cell renal cell carcinoma. PLoS One. 2010; 5:e10696). Gene expression data was deposited at Gene Expression Omnibus (Accession#GSE41485). Pathway analysis was performed using IPA (Ingenuity® Systems).

In assay [2] the test system is T47D (PR+) breast cancer cells. Put plainly: Cell number growth inhibition assay. In kind it is cell-based, human. The method, then: (§1) A number of cancer cell lines were tested to determine whether SCD1 protein expression correlates with growth inhibition of an SCD1 inhibitor in human cancer cell lines.
(§2) Cells (20,000/ml) were plated in 12 well cell culture plates, allowed to attach and treated with the indicated dose of SCD1 inhibitor ([…]) or standard of care (gemcitabine). Cell number was counted using a Coulter Counter. As show in FIG. 7, the data are expressed as percent of DMSO control. Each value represents triplicates. Western analysis for SCD1 protein expression was performed on each cell line with beta-actin as the loading control.
(§3) The following cell lines were studied using a similar method as that described above.

Assay [3] relates to KTC3 thyroid cancer cells. Put plainly: Cell number growth inhibition assay. In kind it is cell-based, human. Here is the method: as §1, §2, §3
Assay [4] deals with HT1376 bladder cancer cells. The assay is described as follows: Cell number growth inhibition assay. In kind it is cell-based, human. Here is the method:
as §1, §2, §3

Assay [5] has as its system Mela 11 melanoma cells. The assay is described as follows: Cell number growth inhibition assay. In kind it is cell-based, human. Here is the method:
as §1, §2, §3

The test system of assay [6] is OVCA420 ovarian cancer cells. Put plainly: Cell number growth inhibition assay. In kind it is cell-based, human. Here is the method:
as §1, §2, §3

For assay [7], the system named is MDA-231 (triple negative) breast cancer cells. Put plainly: Cell number growth inhibition assay. In kind it is cell-based, human. The method, then: as §1, §2, §3
Assay [8] concerns DU-145 prostate cancer cells. The assay is described as follows: Cell number growth inhibition assay. In kind it is cell-based, human. Here is the method: as §1, §2, §3
Assay [9] has as its system Caco2 colon cancer cells. Put plainly: Cell number growth inhibition assay. In kind it is cell-based, human. The method, then:
as §1, §2, §3

For assay [10], the system named is A375 melanoma cells. Put plainly: Cell number growth inhibition assay. In kind it is cell-based, human. Here is the method:
as §1, §2, §3

The subject of assay [11] is SNU449 liver cancer cells. The assay is described as follows: Cell number growth inhibition assay. In kind it is cell-based, human. Particulars: SNU449. The method, then: as §1, §2, §3
In assay [12] the test system is Calu-1 lung cancer cells. Put plainly: Cell number growth inhibition assay. In kind it is cell-based, human. Here is the method: as §1, §2, §3
Assay [13] concerns T24 bladder cancer cells. The assay is described as follows: Cell number growth inhibition assay. In kind it is cell-based, human. Here is the method:
as §1, §2, §3

For assay [14], the system named is HT29 colon cancer cells. Put plainly: Cell number growth inhibition assay. In kind it is cell-based, human. The method, then:
as §1, §2, §3

In assay [15] the test system is HOV TAX2 ovarian cancer cells. The assay is described as follows: Cell number growth inhibition assay. In kind it is cell-based, human. The method, then: as §1, §2, §3
Assay [16] has as its system A549 nonsmall cell lung cancer cells. The assay is described as follows: Cell number growth inhibition assay. In kind it is cell-based, human. Here is the method: as §1, §2, §3
The test system of assay [17] is LNCAP prostate cancer cells. Put plainly: Cell number growth inhibition assay. In kind it is cell-based, human. Here is the method: as §1, §2, §3
In assay [18] the test system is A498 ccRCC xenografts. The assay is described as follows: Western blot of CHOP in xenograft tumor tissue. In kind it is in vivo, athymic nude (nu/nu) mice. Particulars: normalized to β-actin, tumor tissue samples. The method, then:
Protein extracts, electrophoresis, and membrane transfers were prepared as previously described (Copland J A, Marlow L A, Kurakata S, Fujiwara K, Wong A K, Kreinest P A, et al. Novel highaffinity PPARgamma agonist alone and in combination with paclitaxel inhibits human anaplastic thyroid carcinoma tumor growth via p21WAF1/CIP1. Oncogene. 2006; 25:2304-17). Primary antibodies included SCD1, PARP, DDIT3, BiP, sXBP1, and β-actin. A Supersignal chemiluminescent kit was used to perform detection.
Background: A western blot detects proteins with antibodies after separation by electrophoresis.

Setting [19] is: read-out: estimated IC50 concentration, growth inhibition.

In the case of `CNC(=O)c1cccc(NC(=O)N2CCC(Oc3ccccc3Cl)CC2)c1` [A939572], the “expression of ER stress response genes associated with UPR” value in assay [1] is given as “increased expression of ER stress response genes”. The growth inhibition result in [2] is “growth inhibited in a dose dependent fashion”; in [3], “growth inhibited in a dose dependent fashion”; in [4], “growth inhibited in a dose dependent fashion”; in assay [5] it was “not growth inhibited”; in [6], “growth inhibited in a dose dependent fashion”; in [7], “growth inhibited in a dose dependent fashion”. Further, the growth inhibition entry is “growth inhibited in a dose dependent fashion” in assay [8]; “growth inhibited in a dose dependent fashion” in assay [9]; “growth inhibited in a dose dependent fashion” in assay [10]; “growth inhibited in a dose dependent fashion” in [11]; “not growth inhibited” in assay [12]; “growth inhibited in a dose dependent fashion” in assay [13]. Also, the growth inhibition entry in [14], in [15], in [16] and in [17] was “growth inhibited in a dose dependent fashion” in each case. Further, the IC50 in assay [10] (setting [19]) is roughly 50 nM; in [11] (setting [19]) it was roughly 100 nM. In addition, the “CHOP expression (ER stress)” value in assay [18] was “Increased expression of CHOP”.

These data come from patent US10160972B2, “Methods and materials for treating cancer” (Mayo Foundation for Medical Education and Research, priority 2012, dated 2018).
